Assay results published in patent publication US20110294772A1, “USE OF CYCLOSQUARAMIDE COMPOUNDS AS ANTI-TUMOUR AGENTS” (priority 2008, published 2011).
Several values for one entry are separate records, joined by “and”; a condition that tells them apart may be missing. Identical values can stand only once.

Experiments:
ABL1 = ABL1 (Homo sapiens, UniProt P00519); test: in vitro kinase assay; type: biochemical
Method: (§1) Specifically, against a panel of 210 kinases representative of the human kinome, the compounds tested inhibited by […] the activity of 25 of them in in Vitro assays (Table 1).
(§2) The IC50 was determined for the most sensitive kinases to compound 10, obtaining values for said parameter, largely in the micromolar range. For this purpose, the 25 kinases inhibited more than 80% by the compound in in vitro assays were selected.

ACK1 = ACK1 (Homo sapiens, UniProt Q07912); test: in vitro kinase assay; type: biochemical
Method: as §1, §2

CDK4/CycD3 = CDK4/CycD3 (Homo sapiens, UniProt P11802); test: in vitro kinase assay; type: biochemical
Method: as §1, §2

CDK5/p25NCK = CDK5/p25NCK (Homo sapiens, UniProt Q00535); test: in vitro kinase assay; type: biochemical
Method: as §1, §2

CDK7/CycH/Mat1 = CDK7/CycH/Mat1 (Homo sapiens, UniProt P50613); test: in vitro kinase assay; type: biochemical
Method: as §1, §2

CDK9/CycT = CDK9/CycT (Homo sapiens, UniProt P50750); test: in vitro kinase assay; type: biochemical
Method: as §1, §2

CHK1 = CHK1 (Homo sapiens, UniProt O14757); test: in vitro kinase assay; type: biochemical
Method: as §1, §2

CSK = CSK (Homo sapiens, UniProt P41240); test: in vitro kinase assay; type: biochemical
Method: as §1, §2

FGF-R1 VM = FGF-R1 VM (Homo sapiens, UniProt P11362, V561M); test: in vitro kinase assay; type: biochemical
Method: as §1, §2

FGF-R2 = FGF-R2 (Homo sapiens, UniProt P21802); test: in vitro kinase assay; type: biochemical
Method: as §1, §2

MET = MET (Homo sapiens, UniProt P08581); test: in vitro kinase assay; type: biochemical
Method: as §1, §2

MUSK = MUSK (Homo sapiens, UniProt O15146); test: in vitro kinase assay; type: biochemical
Method: as §1, §2

NLK = NLK (Homo sapiens, UniProt Q9UBE8); test: in vitro kinase assay; type: biochemical
Method: as §1, §2

PAK4 = PAK4 (Homo sapiens, UniProt O96013); test: in vitro kinase assay; type: biochemical
Method: as §1, §2

PAK7 = PAK7 (Homo sapiens, UniProt Q9P286); test: in vitro kinase assay; type: biochemical
Method: as §1, §2

PKC-alpha = PKC-alpha (Homo sapiens, UniProt P17252); test: in vitro kinase assay; type: biochemical
Method: as §1, §2

PKC-beta1 = PKC-beta1 (Homo sapiens, UniProt P05771); test: in vitro kinase assay; type: biochemical
Method: as §1, §2

PKC-gamma = PKC-gamma (Homo sapiens, UniProt P05129); test: in vitro kinase assay; type: biochemical
Method: as §1, §2

PLK1 = PLK1 (Homo sapiens, UniProt P53350); test: in vitro kinase assay; type: biochemical
Method: as §1, §2

S6K = S6K (Homo sapiens, UniProt P23443); test: in vitro kinase assay; type: biochemical
Method: as §1, §2

TGFB-R1 = TGFB-R1 (Homo sapiens, UniProt P36897); test: in vitro kinase assay; type: biochemical
Method: as §1, §2

TRK-C = TRK-C (Homo sapiens, UniProt Q16288); test: in vitro kinase assay; type: biochemical
Method: as §1, §2

VRK1 = VRK1 (Homo sapiens, UniProt Q99986); test: in vitro kinase assay; type: biochemical
Method: as §1, §2

[1] = test system: panel of 210 kinases representative of the human kinome; test: in vitro kinase panel; type: biochemical; settings: 25 kinases selected for IC50, in vitro assays
Method: as §1, §2

U87 = test: cell viability assay; type: cell-based, human; settings: U87 glioblastoma, 72 h, with respect to untreated control cells
Hut = test: cell viability assay; type: cell-based, human; settings: Hut T-cell lymphoma, 72 h, with respect to untreated control cells
ACHN (Renal) = test: NCI60 panel IC50; type: cell-based; settings: Homo sapiens
Method: (§3) On the other hand, the values of IC50 were determined in the panel of NCl60 cell lines for compound 10.
(§4) A total of 2 independent experiments were carried out with assays in triplicate for the compound and cell line. All those assays where an IC50 value was not reached in the highest concentration of 1E-05 M are represented by “>1E-05”. In these cases, the standard deviation cannot be calculated and for that reason it is calculated as “-”.

Caki-1 (Renal) = test: NCI60 panel IC50; type: cell-based; settings: Homo sapiens
Method: as §3, §4

DAUDI (Leukaemia) = test: NCI60 panel IC50; type: cell-based; settings: Homo sapiens
Method: as §3, §4

HI-60 (Leukaemia) = test: NCI60 panel IC50; type: cell-based; settings: Homo sapiens
Method: as §3, §4

IGR-OVI (Ovarian) = test: NCI60 panel IC50; type: cell-based; settings: Homo sapiens
Method: as §3, §4

NCI-H226 (Lung) = test: NCI60 panel IC50; type: cell-based; settings: Homo sapiens
Method: as §3, §4

NCI-H23 (Lung) = test: NCI60 panel IC50; type: cell-based; settings: Homo sapiens
Method: as §3, §4

PC-3 (Prostate) = test: NCI60 panel IC50; type: cell-based; settings: Homo sapiens
Method: as §3, §4

RPMI-8226 (Leukaemia) = test: NCI60 panel IC50; type: cell-based; settings: Homo sapiens
Method: as §3, §4

SK-MEL-5 (Melanoma) = test: NCI60 panel IC50; type: cell-based; settings: Homo sapiens
Method: as §3, §4

UACC-62 (Melanoma) = test: NCI60 panel IC50; type: cell-based; settings: Homo sapiens
Method: as §3, §4

UO-31 (Renal) = test: NCI60 panel IC50; type: cell-based; settings: Homo sapiens
Method: as §3, §4

CDK5/p25NCK, sequence (Q00535 whole entry): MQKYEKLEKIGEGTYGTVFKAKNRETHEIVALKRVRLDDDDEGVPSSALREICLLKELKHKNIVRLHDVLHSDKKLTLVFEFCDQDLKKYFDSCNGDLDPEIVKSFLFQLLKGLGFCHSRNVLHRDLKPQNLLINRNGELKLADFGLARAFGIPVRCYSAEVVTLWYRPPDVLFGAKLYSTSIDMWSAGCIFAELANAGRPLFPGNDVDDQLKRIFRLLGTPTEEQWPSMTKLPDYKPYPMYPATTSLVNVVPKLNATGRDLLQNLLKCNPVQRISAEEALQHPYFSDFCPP
CDK5/p25NCK, sequence (Q15078 99-307 partner limits assumed): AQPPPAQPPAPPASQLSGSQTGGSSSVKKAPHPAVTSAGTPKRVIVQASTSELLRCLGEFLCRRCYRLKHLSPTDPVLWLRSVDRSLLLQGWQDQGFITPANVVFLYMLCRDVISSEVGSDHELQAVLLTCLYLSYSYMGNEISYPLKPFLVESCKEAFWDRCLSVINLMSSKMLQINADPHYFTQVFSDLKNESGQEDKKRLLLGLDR
CDK9/CycT, sequence (P50750 whole entry): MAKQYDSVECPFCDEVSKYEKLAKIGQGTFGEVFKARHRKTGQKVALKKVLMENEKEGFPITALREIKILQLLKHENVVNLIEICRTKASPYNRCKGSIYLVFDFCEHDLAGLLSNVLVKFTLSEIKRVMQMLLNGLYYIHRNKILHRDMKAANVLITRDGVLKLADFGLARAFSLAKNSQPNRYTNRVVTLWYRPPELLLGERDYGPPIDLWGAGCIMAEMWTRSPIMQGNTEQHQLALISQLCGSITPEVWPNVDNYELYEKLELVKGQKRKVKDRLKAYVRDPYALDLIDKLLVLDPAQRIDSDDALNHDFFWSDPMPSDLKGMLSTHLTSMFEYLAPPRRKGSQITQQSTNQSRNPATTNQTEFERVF
CDK9/CycT, sequence (O60563 whole entry partner): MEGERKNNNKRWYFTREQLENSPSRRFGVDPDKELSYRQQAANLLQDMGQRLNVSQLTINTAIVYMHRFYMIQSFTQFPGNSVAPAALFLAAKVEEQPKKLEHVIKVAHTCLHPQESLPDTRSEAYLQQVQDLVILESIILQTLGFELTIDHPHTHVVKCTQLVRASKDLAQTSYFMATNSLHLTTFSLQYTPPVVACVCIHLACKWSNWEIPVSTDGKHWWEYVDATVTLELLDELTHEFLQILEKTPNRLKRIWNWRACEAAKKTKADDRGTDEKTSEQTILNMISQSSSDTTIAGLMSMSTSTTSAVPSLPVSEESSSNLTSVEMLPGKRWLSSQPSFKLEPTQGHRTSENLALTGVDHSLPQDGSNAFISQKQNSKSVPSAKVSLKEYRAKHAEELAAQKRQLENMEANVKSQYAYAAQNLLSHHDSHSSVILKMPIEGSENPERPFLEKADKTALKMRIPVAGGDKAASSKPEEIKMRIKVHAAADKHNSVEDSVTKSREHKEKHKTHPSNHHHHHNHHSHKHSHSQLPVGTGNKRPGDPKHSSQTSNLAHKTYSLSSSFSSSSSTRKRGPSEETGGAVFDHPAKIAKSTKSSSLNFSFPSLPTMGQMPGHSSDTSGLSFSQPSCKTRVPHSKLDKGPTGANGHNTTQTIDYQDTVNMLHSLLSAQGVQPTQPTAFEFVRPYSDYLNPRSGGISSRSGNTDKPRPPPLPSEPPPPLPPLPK
CDK4/CycD3, sequence (P11802 whole entry): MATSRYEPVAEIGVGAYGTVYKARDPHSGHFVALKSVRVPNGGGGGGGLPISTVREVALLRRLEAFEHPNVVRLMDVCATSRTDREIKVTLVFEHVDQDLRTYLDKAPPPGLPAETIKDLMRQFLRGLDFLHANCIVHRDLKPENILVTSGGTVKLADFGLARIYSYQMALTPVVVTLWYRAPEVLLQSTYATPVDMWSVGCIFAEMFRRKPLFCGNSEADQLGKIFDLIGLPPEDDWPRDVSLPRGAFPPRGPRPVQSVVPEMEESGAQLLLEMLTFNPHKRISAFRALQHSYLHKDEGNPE
CDK4/CycD3, sequence (P30281 whole entry partner): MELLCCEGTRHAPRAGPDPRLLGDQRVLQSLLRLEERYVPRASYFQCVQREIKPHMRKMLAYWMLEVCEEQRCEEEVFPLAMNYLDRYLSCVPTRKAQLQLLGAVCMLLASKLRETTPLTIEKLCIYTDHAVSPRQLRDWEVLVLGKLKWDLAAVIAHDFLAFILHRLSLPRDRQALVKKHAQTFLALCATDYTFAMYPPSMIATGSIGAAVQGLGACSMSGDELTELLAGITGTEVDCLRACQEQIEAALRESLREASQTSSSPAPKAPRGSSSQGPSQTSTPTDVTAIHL
CSK, sequence (P41240 whole entry): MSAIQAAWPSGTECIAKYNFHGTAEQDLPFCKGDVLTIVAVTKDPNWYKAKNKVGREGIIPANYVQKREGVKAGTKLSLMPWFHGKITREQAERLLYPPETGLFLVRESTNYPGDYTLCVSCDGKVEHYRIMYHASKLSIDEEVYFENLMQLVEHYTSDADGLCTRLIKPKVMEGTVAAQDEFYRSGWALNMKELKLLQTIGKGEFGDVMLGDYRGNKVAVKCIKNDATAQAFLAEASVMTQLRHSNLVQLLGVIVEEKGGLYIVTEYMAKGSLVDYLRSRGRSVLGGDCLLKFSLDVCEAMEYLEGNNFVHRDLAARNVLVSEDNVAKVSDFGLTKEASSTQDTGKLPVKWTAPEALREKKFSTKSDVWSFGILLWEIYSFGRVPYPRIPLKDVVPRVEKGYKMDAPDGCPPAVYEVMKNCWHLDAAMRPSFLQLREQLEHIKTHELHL
TRK-C, sequence (Q16288 32-839): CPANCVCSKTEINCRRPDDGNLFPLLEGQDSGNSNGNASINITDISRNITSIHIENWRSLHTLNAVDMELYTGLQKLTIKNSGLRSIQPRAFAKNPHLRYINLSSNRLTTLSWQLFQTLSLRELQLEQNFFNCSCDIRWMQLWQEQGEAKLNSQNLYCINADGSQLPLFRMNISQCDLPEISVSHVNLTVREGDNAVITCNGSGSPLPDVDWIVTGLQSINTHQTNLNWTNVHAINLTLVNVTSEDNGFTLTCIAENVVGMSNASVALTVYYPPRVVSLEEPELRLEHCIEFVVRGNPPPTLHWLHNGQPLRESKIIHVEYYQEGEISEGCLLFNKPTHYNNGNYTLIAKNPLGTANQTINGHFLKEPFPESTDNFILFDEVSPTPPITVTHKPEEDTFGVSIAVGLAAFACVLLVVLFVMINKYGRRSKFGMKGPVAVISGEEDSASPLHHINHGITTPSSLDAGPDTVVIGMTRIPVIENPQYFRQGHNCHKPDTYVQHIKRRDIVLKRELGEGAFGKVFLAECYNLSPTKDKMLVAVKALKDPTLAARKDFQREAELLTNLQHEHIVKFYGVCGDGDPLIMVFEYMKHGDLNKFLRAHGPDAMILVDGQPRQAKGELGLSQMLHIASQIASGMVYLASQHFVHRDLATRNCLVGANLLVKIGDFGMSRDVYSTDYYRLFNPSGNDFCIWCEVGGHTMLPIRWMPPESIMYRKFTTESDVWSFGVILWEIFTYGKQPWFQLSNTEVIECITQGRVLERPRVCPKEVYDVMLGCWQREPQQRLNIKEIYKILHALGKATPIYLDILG
MUSK, sequence (O15146 24-869): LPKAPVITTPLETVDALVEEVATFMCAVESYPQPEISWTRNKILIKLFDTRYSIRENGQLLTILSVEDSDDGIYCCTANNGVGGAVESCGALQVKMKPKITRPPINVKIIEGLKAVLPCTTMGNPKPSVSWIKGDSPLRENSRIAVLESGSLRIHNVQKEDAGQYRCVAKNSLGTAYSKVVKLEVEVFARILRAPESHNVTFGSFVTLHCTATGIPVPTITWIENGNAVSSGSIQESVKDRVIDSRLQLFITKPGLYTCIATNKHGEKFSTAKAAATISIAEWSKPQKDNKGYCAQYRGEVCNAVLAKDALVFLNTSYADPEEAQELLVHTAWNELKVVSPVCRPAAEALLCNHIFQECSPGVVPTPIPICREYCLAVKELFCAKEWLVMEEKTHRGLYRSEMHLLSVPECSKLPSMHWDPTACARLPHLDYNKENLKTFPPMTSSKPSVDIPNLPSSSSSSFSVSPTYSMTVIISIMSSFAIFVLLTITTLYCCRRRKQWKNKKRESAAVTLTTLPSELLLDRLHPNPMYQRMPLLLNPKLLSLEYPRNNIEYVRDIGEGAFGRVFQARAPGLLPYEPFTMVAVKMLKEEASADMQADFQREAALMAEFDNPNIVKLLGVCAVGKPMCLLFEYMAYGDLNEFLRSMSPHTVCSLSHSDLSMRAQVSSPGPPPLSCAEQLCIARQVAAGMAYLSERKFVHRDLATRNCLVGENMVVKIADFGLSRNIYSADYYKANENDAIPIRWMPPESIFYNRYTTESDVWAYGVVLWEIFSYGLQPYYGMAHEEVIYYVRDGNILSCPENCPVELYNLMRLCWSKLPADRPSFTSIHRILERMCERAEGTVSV

CN1CCCNc2c(c(=O)c2=O)NCCCN(C)CCCNc2c(c(=O)c2=O)NCCCN(C)CCCNc2c(c(=O)c2=O)NCCCN(C)CCCNc2c(c(=O)c2=O)NCCCN(C)CCCNc2c(c(=O)c2=O)NCCC1 [Compound 10]
IC50 (ABL1): 5.4 µM
inhibition of kinase Ack1 (ACK1): 85%
IC50 (CDK4/CycD3): 5.4 µM and 5.3 µM
inhibition of kinase cdk5 (CDK5/p25NCK; in vitro kinase assay): 80%
IC50 (CDK5/p25NCK; kinase CDK5/p25NCK, in vitro): 9.2 µM
IC50 (CDK7/CycH/Mat1): 28 µM
inhibition of kinase cdk9 (CDK9/CycT; in vitro kinase assay): 87%
IC50 (CDK9/CycT; kinase CDK9/CycT, in vitro): 3.7 µM
IC50 (CHK1): 1.4 µM
IC50 (CSK): 13 µM and 7.2 µM
IC50 (FGF-R1 VM): 2.6 µM
IC50 (FGF-R2): 5.4 µM
IC50 (MET): 3.7 µM
IC50 (MUSK): 1.5 µM
IC50 (NLK): 4.3 µM
IC50 (PAK4): 4.3 µM
IC50 (PAK7): 4.9 µM
IC50 (PKC-alpha): 2.3 µM
IC50 (PKC-beta1): 7.6 µM
IC50 (PKC-gamma): 5.8 µM and 4.9 µM
IC50 (PLK1): 26 µM
IC50 (S6K): 4.4 µM
IC50 (TGFB-R1): 3.3 µM
IC50 (TRK-C): 7.2 µM and 6.6 µM
IC50 (VRK1): 2.4 µM
inhibition of the 25 most sensitive kinases [1]: more than 80%
% Cell viability (U87): 25%
% Cell viability (Hut): 60%
IC50 (ACHN (Renal)): 3.25 µM
IC50 (Caki-1 (Renal)): 5.75 µM
IC50 (DAUDI (Leukaemia)): 1.99 µM
IC50 (HI-60 (Leukaemia)): 2.41 µM
IC50 (IGR-OVI (Ovarian)): 2.38 µM
IC50 (NCI-H226 (Lung)): 1.53 µM
IC50 (NCI-H23 (Lung)): 3.02 µM
IC50 (PC-3 (Prostate)): 2.46 µM
IC50 (RPMI-8226 (Leukaemia)): 8.97 µM
IC50 (SK-MEL-5 (Melanoma)): 2.75 µM
IC50 (UACC-62 (Melanoma)): 1.34 µM
IC50 (UO-31 (Renal)): 2.17 µM
